Read-outs that look alike come from different tables or passages of the source.
Legend:
cerebral blood flow = settings: in vivo; cited from earlier work
[1] = test system: polymorphonuclear leukocytes; settings: in response to a stimulator of chemotaxis; cited from earlier work
[2] = test system: ras-transformed NIH/3T3 cells
PUMP-1 = PUMP-1 activity induced by 100 U/ml of IL-1; type: cell-based; settings: IL-1 100 U/ml
Text: Metalloproteases mediate tissue damage such as glomerular diseases of the kidney, joint destruction in arthritis, and lung destruction in emphysema, and play a role in tumor metastases. Three examples of metalloproteases include a 92 kD type V gelatinase induced by TNF, IL-1 and PDGF plus βFGF, a 72 kD type IV collagenase that is usually constitutive and induced by TNF or IL-1, and a stromelysin/PUMP-1 induced by TNF and IL-1. The inventive compounds can inhibit TNF or IL-1 induction of the 92 kD type V gelatinase inducable metalloprotease. Moreover, the inventive compounds can reduce PUMP-1 activity induced by 100 U/ml of IL-1. […] Accordingly, the inventive compounds prevent induction of certain metalloproteases induced by IL-1 or TNF and are not involved with constitutively produced proteases (e.g., 72 kD type IV collagenase) involved in normal tissue remodeling.

LPAAT = test: Formation of remodeled PA through the PA/DAG pathway (in vitro); type: cell-based; settings: high PTX concentrations
Text: Even in the presence of PTX, cells continue to form PA through the action of PLD, and DAG is also formed through the action of phospholipase C on PC and PI. The latter pathway is not inhibited by the inventive compounds or PTX. In PTX-treated cells, DAG derived from remodeled and PLA-generated PA is diminished (e.g., 1,2-sn-dioleoyl DAG, 1-alkyl,2-linoleoyl DAG and 1-alkyl,2-docosahexaneolyl DAG). Therefore, the inventive compounds and PTX inhibit the formation of only a certain species of PA and DAG by selectively inhibiting a specific second messenger pathway that is only activated in cells by noxious stimuli, but is not used to signal normal cellular housekeeping functions.

[3] = test system: generation of DAG and PA in ras-transformed NIH/3T3 cells; test: Serum-stimulated generation of DAG and PA in ras-transformed NIH/3T3 cells; type: cell-based; settings: pretreatment of cells
Text: For example, activating ras mutations result in increased generation of DAG on stimulation with mitogens, although the sources of DAG have differed between experimental systems. In nontransformed renal mesangial cells, IL-1 β stimulation increased PLA2 and LPAAT activation, resulting in generation of sn-2 unsaturated PA and subsequent hydrolysis to DAG by phosphatidate phosphohydrolase. The ras transformation in NIH/3T3 cells upregulates serum-stimulated generation of DAG and PA. The specific species of DAG that is stimulated by serum is dioleoyl and for PA are dilinoleoyl and dioleoyl. […] The inhibition occurs either through suppressing the generation of PA de novo from lysoPA, or through inhibition of one or both arms of the Lands cycle. […] Therefore, the ras transformation mediates an upregulation of PA through indirect stimulation of PLA2 and/or LPAAT activity.

[4] = test system: tumor necrosis factor (TNF); settings: cited from earlier work

Row | SMILES | cerebral blood flow (cerebral blood flow) | chemotaxis stimulation [1] | cytotoxicity in ras-transformed cells [2] | inhibition of ras-transformed cells ([2]; vs parental cells) | PUMP-1 activity, % of control levels (PUMP-1) | inhibition of formation of remodeled PA (LPAAT) | inhibition of DAG/PA generation [3] | TNF levels ([4]; normal volunteers) | TNF levels ([4]; with GM-CSF, patients undergoing allogeneic bone marrow transplant)
1 | CC(O)CCCCn1c(=O)c2c(ncn2C)n(C)c1=O (stereo not shown) [M1, 1-(5-hydroxyhexyl)-3,7-dimethylxanthine] | increasing cerebral blood flow | stimulate chemotaxis in polymorphonuclear leukocytes | – | – | – | – | – | – | –
2 | CC(=O)CCCCn1c(=O)c2c(ncn2C)n(C)c1=O [PTX, 1-(5-oxohexyl)-3,7-dimethylxanthine] | – | stimulate chemotaxis in polymorphonuclear leukocytes | not associated with significant cytotoxicity | inhibits ras-transformed NIH/3T3 cells more than parental cells | 95% | blocks formation of remodeled PA through the PA/DAG pathway at high PTX concentrations | blocks generation of these phospholipid second messengers | TNF levels were higher among PTX recipients | decrease tumor necrosis factor (TNF) levels
